According to patent publication US4235902A, “Pesticidal carbamate esters of 5-oximino-1,3-oxazolidin-4-ones” (priority 1976, dated 1980):

Tests used:
[1] = tested on: root-knot nematode, Meloidogyne incognita var. acrita; test: Nematocide test; type: in vivo; design: key: A: excellent control; B: partial control; C: no control; conditions: 3.33 m.g. per jar; galling of cucumber roots rated after approximately 3 weeks
Description: The test organism used was the infective migratory larvae of the root-knot nematode, Meloidogyne incognita var. acrita, reared in the greenhouse on roots of cucumber plants. Infected plants were removed from the culture, and the roots are chopped very finely. A small amount of this inoculum was added to a pint jar containing approximately 180 cc. of soil. The jars were capped and incubated for one week at room temperature. During this period eggs of the nematode were hatched, and the larval forms migrated into the soil.
Ten ml. of the test formulation were added to each of the two jars for each dosage tested. Following the addition of chemical, the jars were capped, and the contents thoroughly mixed on a ball mill for 5 minutes.
The test compounds were formulated by a standard procedure of solution in acetone addition of an emulsifier, and dilution with water. Primary screening tests were conducted at 3.33 m.g. of the test compound per jar.
The jars were left capped at room temperature for a period of 48 hours, and the contents then transferred to 3 inch pots. Subsequently, the pots were seeded to cucumber as an indicator crop and placed in the greenhouse where they were cared for in the normal fashion for approximately 3 weeks.
The cucumber plants were then taken from the pots, the soil removed from the roots, and the amount of galling visually rated.
(§1) In these tests the pesticidal activity of the compounds against aphid, mite, Southern Armyworm, Mexican Bean Beetle, nematodes and house fly was rated as follows: […]

[2] = tested on: two-spotted mite (Tetranychus urticae Koch); test: Mite foliage spray test; type: in vivo; design: key: A: excellent control; B: partial control; C: no control; conditions: 500 parts per million, six days
Description: (§2) Suspensions of the test compounds were prepared by dissolving one gram of compound in 50 milliliters of acetone in which had been dissolved 0.1 gram (10 percent of the weight of compound) of an alkylphenoxy polyethoxyethanol surfactant, as an emulsifying or dispersing agent. The resulting solution was mixed into 150 milliliters of water to give roughtly 200 milliliters of a suspension containing the compound in finely divided form. The thus-prepared stock suspension contained 0.5 percent by weight of compound. The test concentrations in parts per million by weight employed in the tests described hereinbelow were obtained by appropriate dilutions of the stock suspension with water. The test procedures were as follows:
Adults and nymphal stages of the two-spotted mite (Tetranychus urticae Koch), reared on Tendergreen bean plants at 80±5 per cent relative humidity, were the test organisms. Infested leaves from a stock culture were placed on the primary leaves of two bean plants six to eight inches in height, growing in a two-and-a-half inch clay pot. 150-200 Mites, a sufficient number for testing, transferred from the excised leaves to the fresh plants in a period of twenty four hours. Following the twenty four hour transfer period, the excised leaves were removed from the infested plants. The test compounds were formulated by diluting the stock suspension with water to give a suspension containing 500 parts of test compound per million parts of final formulation. The potted plants (one pot per compound) were placed on a revolving turntable and sprayed with 100-110 milliliters of test compound formulation by use of a DeVilbiss spray gun set at 40 psig. air pressure. This application, which lasted 25 seconds, was sufficient to wet the plants to run-off. As a control, 100-110 milliliteres of a water solution containing acetone and emulsifier in the same concentrations as the test compound formulation, but containing no test compound, were also sprayed on infested plants. The sprayed plants were held at 80±5 per cent relative humidity for six days, after which a mortality count of motile forms was made. Microscopic examination for motile forms was made on the leaves of the test plants. Any individual which was capable of locomotion upon prodding was considered living.
as §1

[3] = tested on: Mexican bean beetle (Epilachna varivestis, Muls.); test: Mexican bean beetle leaf spray test; type: in vivo; design: key: A: excellent control; B: partial control; C: no control; conditions: 500 parts per million, fourth instar larvae, three days
Description: as §2
MEXICAN BEAN BEETLE LEAF SPRAY TEST
Fourth instar larvae of the Mexican bean beetle (Epilachna varivestis, Muls.), reared on Tendergreen bean plants at a temperature of 80±5° F. and 50±5 per cent relative humidity, were the test insects.
The test compounds were formulated by diluting the stock suspension with water to give a suspension containing 500 parts of test compound per million parts of final formulation. Potted Tendergreen bean plants of standard height and age were placed on a revolving turntable and sprayed with 100-110 milliliters of test compound formulation by use of a DeVilbiss spray gun set at 10 psig air pressure. This application, which lasted 25 seconds, was sufficient to wet plants to run-off. As a control 100-110 milliliters of a water-acetone-emulsifier solution containing no test compound were also sprayed on infested plants. When dry, the paired leaves were separated and each was placed in a 9 centimeter Petri dish lined with moistened filter paper. Five randomly selected larvae were introduced into each dish, and the dishes were closed. The closed dishes were labeled and held at a temperature of 80±5° F. for three days. Although the larvae could easily consume the leaf within 24 to 48 hours, no more food was added. Larvae which were unable to move the length of the body, even upon stimulation, were considered dead.
as §1

[4] = tested on: bean aphid (Aphis fabae Scop.); test: Bean aphid foliage spray test; type: in vivo; design: key: A: excellent control; B: partial control; C: no control; conditions: 500 parts per million, 24 hour
Description: as §2
BEAN APHID FOLIAGE SPRAY TEST
Adults and nymphal stages of the bean aphid (Aphis fabae Scop.) reared on potted dwarf nasturtium plants at 64°-70° F. and 50-70 per cent relative humidity, constituted the test insects. For testing purposes, the number of aphids per pot was standardized to 100-150 by trimming plants containing excess aphids.
The test compounds were formulated by diluting the stock suspension with water to give a suspension containing 500 parts of test compound per million parts of final formulation.
The potted plants (one pot per compound tested) infested with 100-150 aphids, were placed on a revolving turntable and sprayed with […] of test compound formulation by use of a DeVilbiss spray gun set at 40 psig. air pressure. This application, which lasted 25 seconds, was sufficient to wet the plants to run-off. As a control, 100-110 milliliters of a water-acetone-emulsifier solution containing no test compound were also sprayed on infested plants. After spraying, the pots were placed on their sides on a sheet of white standard mimeograph paper which had been previously ruled to facilitate counting. Temperature and humidity in the test room during the 24 hour holding period were 65°-70° F. and 50-70 per cent, respectively. Aphids which fell onto the paper and were unable to remain standing after being uprighted were considered dead. Aphids remaning on the plants were observed closely for movement and those which were unable to move the length of the body upon stimulation by prodding were considered dead. Per cent mortality was recorded for various concentration levels.
as §1

[5] = tested on: southern armyworm (Prodenia eridania, (Cram.)); test: Southern armyworm leaf spray test; type: in vivo; design: key: A: excellent control; B: partial control; C: no control; conditions: 500 parts per million, larvae, three days
Description: as §2
SOUTHERN ARMYWORM LEAF SPRAY TEST
Larvae of the southern armyworm (Prodenia eridania, (Cram.)), reared on Tendergreen bean plants at a temperature of 80±5° F. and a relative humidity of 50±5 per cent, constituted the test insects.
The test compounds were formulated by diluting the stock suspension with water to give a suspension containing 500 parts of test compound per million parts of final formulation. Potted Tendergreen bean plants of standard height and age were placed on a revolving turntable and sprayed with 100-110 milliliters of test compound formulation by use of a DeVilbiss spray gun set at 10 psig air pressure. This application, which lasted 25 seconds, was sufficient to wet plants to run-off. As a control, 100-110 milliliters of a water-acetone-emulsifier solution containing no test compound were also sprayed on infested plants. When dry, the paired leaves were separated and each one was placed in a 9 centimeter Petri dish lined with moistened filter paper. Five randomly selected larvae were introduced into each dish and the dishes were closed. The closed dishes were labeled and held at 80°-85° F. for three days. Although the larvae could easily consume the whole leaf within twenty-four hours, no more food was added. Larvae which were unable to move the length of the body, even upon stimulation by prodding, were considered dead. Per cent mortality was recorded for various concentration levels.
as §1

[6] = tested on: house flies (Musca domestica, L.); test: Fly bait test; type: in vivo; design: key: A: excellent control; B: partial control; C: no control; conditions: 500 parts per million in sugar bait; twenty four hours
Description: as §2
Four to six day old adult house flies (Musca domestica, L.), reared according to the specifications of the Chemical Specialities Manufacturing Association (Blue Book, McNair-Dorland Co., N. Y. 1954; pages 243-244, 261) under controlled conditions of 80±5° F. and 50±5 per cent relative humidity, were the test insects. The flies were immobilized by anesthetizing with carbon dioxide and twenty five immobilized individuals, males and females, were transferred to a cage consisting of a standard food strainer about five inches in diameter which was inverted over a wrapping-paper-covered surface. The test compounds were formulated by diluting the stock suspension with a 10 per cent (by weight) sugar solution to give a suspension containing 500 parts of test compound per million parts of final formulation, by weight. Ten milliliters of the test formulation were added to a souffle cup containing a one-inch square of an absorbent cotton pad. This bait cup was introduced and centered on the blotting paper under the food strainer prior to admitting the anesthetized flies. The caged flies were allowed to feed on the bait for twenty four hours, at a temperature of 80±5° F. and the relative humidity of 50±5 per cent.
as §1

[7] = Acute oral (peroral) toxicity to mammals; conditions: in vivo, rat, mortality rate of 50 percent
Description: Certain of these compositions were also evaluated to determine their peroral toxicity to mammals. The animal selected for this experiment was the rat. The test results obtained are expressed in terms of the number of milligrams of compositions per kilogram of weight of the animal required to achieve a mortality rate of 50 percent (LD50).

SMILES	Biological Activity: Nematode [1]	Biological Activity: Mite [2]	Biological Activity: Bean Beetle [3]	Biological Activity: Aphid [4]	Biological Activity: Southern Army Worm [5]	Biological Activity: Housefly [6]	LD50 [7]
CCC1COC(=NOC(=O)N(C)SC(Cl)(Cl)Cl)C(=O)N1C (centres unmarked)	A	A	A	A	C	A	–
CNC(=O)ON=C1OCCN(C)C1=O [2-Methylcarbamoyloximino-4-methyltetrahydro1,4-oxazin-3-one]	A	A	A	A	A	A	343 mg/kg
CN1CCOC(=NOC(=O)N(C)SC(Cl)(Cl)Cl)C1=O [2-[N-Trichloromethanesulfenyl-N-methylcarbamoyloximino]-4-methyltetrahydro-1,4-oxazin-3-one]	A	B	A	A	C	A	–
CNC(=O)ON=C1OCCN(C(C)C)C1=O	–	C	C	A	C	A	–
CNC(=O)ON=C1OCC(C)(C)N(C)C1=O	A	A	A	A	C	A	126 mg/kg
CCCN1CCOC(=NOC(=O)NC)C1=O	C	A	B	A	A	A	–
CCN1CCOC(=NOC(=O)NC)C1=O	C	A	C	A	C	A	–
CNC(=O)ON=C1OC(C)CN(C)C1=O (centres unmarked) [2-Methylcarbamoyloximino-4,-6-dimethyltetrahydro-1,4-oxazin-3-one]	A	A	A	A	A	A	–
CN(SC(Cl)(Cl)Cl)C(=O)ON=C1OCC(C)(C)N(C)C1=O [2-[N-Trichloromethanesulfenyl-N-methyl/carbamoyloximino]-4,5,5-trimethyltetrahydro, -1,4-oxazin-3-one]	–	A	B	A	C	A	794 mg/kg
CCC1COC(=NOC(=O)NC)C(=O)N1C (centres unmarked)	C	A	C	A	A	A	23.8 mg/kg
